Reference: patent US20070264679A1, “Method for analyzing the activity of lipoxygenase using a water-soluble substrate” (Chungnam National University Industry Collaboration …, priority 2006, published 2007)
Each block holds one molecule with its values, some of them ahead of it.

Columns and labels:
Reticulocyte LOX = target: T1, Reticulocyte LOX (Oryctolagus cuniculus, UniProt P12530); test: Kinetics of oxygenation of linoleoylated substrates by reticulocyte LOX; type: biochemical, Rabbit; conditions: reticulocyte LOX 8.2 units/ml, 50 mM phosphate buffer pH 7.4, 25° C.; for Km: substrate 3-100 μM
T1 construct: purchased Biomol Inc. (Plymouth Meeting, Pa., USA)
T1 sequence (P12530 1-663): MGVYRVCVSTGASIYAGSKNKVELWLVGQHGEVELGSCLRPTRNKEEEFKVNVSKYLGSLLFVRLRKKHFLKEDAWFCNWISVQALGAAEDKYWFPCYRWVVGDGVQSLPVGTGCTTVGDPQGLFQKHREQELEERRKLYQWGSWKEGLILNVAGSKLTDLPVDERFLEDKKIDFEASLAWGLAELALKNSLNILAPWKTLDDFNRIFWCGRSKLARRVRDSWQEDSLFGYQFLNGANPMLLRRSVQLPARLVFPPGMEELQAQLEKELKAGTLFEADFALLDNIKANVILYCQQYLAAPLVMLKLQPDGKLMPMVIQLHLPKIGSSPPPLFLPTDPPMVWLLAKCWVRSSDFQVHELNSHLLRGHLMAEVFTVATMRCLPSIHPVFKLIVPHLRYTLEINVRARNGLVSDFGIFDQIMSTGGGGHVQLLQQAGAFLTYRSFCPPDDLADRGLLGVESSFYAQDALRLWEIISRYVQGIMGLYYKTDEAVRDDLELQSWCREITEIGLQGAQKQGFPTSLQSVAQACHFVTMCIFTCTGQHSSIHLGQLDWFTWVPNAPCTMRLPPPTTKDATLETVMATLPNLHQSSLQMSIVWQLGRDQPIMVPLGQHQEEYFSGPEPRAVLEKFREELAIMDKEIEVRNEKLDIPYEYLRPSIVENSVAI
Source text: (§1) Data were expressed as means ±S.D. of results from at least three independent experiments.

soybean LOX-1 [1] = target: T2, soybean LOX-1 (Glycine max, UniProt P08170); test: Kinetics of oxygenation of docosahexaenoic acid derivatives by soybean LOX-1; type: biochemical; conditions: soybean LOX-1 2.5 units/ml, 50 mM borax buffer pH 9.0, 25° C.
T2 construct: purchased Sigma-Aldrich Corp (St. Louis, Mo., USA) lipoxidase Type I-B
T2 sequence (P08170 1-839): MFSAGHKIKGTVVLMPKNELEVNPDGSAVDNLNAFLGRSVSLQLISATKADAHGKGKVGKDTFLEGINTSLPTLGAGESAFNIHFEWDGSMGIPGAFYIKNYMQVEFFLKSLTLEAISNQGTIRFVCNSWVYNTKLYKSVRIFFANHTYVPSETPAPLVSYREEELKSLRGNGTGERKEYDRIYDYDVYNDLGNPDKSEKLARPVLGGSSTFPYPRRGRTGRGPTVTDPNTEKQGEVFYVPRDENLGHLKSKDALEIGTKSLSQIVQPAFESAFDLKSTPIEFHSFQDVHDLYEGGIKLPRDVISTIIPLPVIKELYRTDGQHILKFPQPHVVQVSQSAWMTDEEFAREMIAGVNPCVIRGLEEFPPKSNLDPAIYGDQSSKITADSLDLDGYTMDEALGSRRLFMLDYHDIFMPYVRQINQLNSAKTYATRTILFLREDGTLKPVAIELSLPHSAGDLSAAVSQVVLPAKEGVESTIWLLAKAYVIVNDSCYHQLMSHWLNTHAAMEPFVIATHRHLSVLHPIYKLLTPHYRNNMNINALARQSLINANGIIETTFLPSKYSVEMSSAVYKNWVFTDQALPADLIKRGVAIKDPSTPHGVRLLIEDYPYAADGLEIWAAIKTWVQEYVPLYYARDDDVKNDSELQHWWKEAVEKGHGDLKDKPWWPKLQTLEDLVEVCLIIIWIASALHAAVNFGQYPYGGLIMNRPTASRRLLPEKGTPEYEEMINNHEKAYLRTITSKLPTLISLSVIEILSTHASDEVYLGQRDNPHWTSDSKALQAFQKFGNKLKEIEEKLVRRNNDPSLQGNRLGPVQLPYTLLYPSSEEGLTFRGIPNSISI
Protocol: Soybean LOX-1 (2.5 units/ml) was incubated with docosahexaenoyl-lysoPC, didocosahexaenoyl-lysoPC or docosahexaenoic acid of various concentrations in 500 μl of 50 mM borax buffer (pH 9.0) at 25° C. Values were expressed as means ±S.D. of results from at least three independent experiments.

soybean LOX-1 [2] = target: T2, soybean LOX-1; test: Kinetics of oxygenation of arachidonic acid or arachidonoyl-lysophospholipids by soybean LOX-1; type: biochemical; conditions: soybean LOX-1 2.5 units/ml, 50 mM borax buffer pH 9.0; unit = one nanomole conjugated diene per min
Protocol: (§2) Activities of various LOXs were monitored by measuring the increase in absorbance at 234 nm due to the formation of hydroperoxide (ε234=25,000 M^−1 cm^−1) at 25° C. as described before (Smith et al, J. Biol. Chem. 247 (1972) 1038-1047). One unit is defined as the amount of LOXs that can produce one nanomole of conjugated diene per min. The reaction mixture (500 μl) included reticulocyte LOX (2 units/ml) in 50 mM phosphate buffer (pH 7.4), porcine leukocyte LOX (1 unit/ml) in 100 mM phosphate buffer (pH 7.5) containing 5 mM EDTA and 0.03% Tween 20, or soybean LOX-1 (2.5 units/ml) in 50 mM borax buffer (pH 9.0) at 25° C. The reactions were started by including each substrate (100 μM) into the above reaction mixture.
(§3) Reticulocyte LOX (2 units/ml), leukocyte LOX (1 units/ml) or soybean LOX-1 (2.5 units/ml) was incubated with each arachidonoyl derivative substrate of various concentrations as described above. The values of kinetic parameters were obtained according to Lineweaver Burke plot analyses as described before (Barroso et al, J. Chromatogr. B. Analyt. Technol. Biomed. Life. Sci. 814 (2005) 21-28).

[3] = target: T3, Leukocyte 12-lipoxygenase (leukocyte LOX) (Sus scrofa, UniProt P16469); test: Kinetics of oxygenation of arachidonic acid or arachidonoyl-lysophospholipids by leukocyte LOX; type: biochemical, porcine; conditions: leukocyte LOX 1 unit/ml, 100 mM phosphate buffer pH 7.5, 5 mM EDTA, 0.03% Tween 20
T3 construct: purchased Cayman Chemical Co. (Ann Arbor, Mich., USA)
T3 sequence (P16469 1-663): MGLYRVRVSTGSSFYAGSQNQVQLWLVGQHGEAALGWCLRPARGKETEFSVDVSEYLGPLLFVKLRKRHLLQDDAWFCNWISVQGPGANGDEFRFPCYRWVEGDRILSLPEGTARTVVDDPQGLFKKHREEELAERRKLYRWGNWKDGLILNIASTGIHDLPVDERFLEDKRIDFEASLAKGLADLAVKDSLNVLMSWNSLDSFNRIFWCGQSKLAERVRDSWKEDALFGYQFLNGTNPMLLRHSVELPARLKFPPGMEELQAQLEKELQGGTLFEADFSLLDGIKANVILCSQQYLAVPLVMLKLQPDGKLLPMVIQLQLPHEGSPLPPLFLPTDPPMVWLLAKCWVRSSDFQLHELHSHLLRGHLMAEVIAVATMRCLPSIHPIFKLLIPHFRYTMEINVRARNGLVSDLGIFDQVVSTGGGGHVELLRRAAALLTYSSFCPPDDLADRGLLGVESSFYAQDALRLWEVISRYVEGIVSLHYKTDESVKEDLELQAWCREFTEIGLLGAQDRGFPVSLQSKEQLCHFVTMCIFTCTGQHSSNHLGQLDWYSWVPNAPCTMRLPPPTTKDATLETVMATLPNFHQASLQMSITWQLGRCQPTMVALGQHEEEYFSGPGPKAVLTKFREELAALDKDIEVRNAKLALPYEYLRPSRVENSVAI
Protocol: as §2, §3

Porcine leukocyte LOX = target: T4, Porcine leukocyte LOX (Sus scrofa, UniProt P16469); test: Kinetics of oxygenation of linoleoylated substrates by leukocyte LOX; type: biochemical; conditions: porcine leukocyte LOX 1.5 units/ml, 100 mM phosphate buffer pH 7.5, 5 mM EDTA
T4 construct: purchased Cayman Chemical Co. (Ann Arbor, Mich., USA)
T4 sequence (P16469 1-663): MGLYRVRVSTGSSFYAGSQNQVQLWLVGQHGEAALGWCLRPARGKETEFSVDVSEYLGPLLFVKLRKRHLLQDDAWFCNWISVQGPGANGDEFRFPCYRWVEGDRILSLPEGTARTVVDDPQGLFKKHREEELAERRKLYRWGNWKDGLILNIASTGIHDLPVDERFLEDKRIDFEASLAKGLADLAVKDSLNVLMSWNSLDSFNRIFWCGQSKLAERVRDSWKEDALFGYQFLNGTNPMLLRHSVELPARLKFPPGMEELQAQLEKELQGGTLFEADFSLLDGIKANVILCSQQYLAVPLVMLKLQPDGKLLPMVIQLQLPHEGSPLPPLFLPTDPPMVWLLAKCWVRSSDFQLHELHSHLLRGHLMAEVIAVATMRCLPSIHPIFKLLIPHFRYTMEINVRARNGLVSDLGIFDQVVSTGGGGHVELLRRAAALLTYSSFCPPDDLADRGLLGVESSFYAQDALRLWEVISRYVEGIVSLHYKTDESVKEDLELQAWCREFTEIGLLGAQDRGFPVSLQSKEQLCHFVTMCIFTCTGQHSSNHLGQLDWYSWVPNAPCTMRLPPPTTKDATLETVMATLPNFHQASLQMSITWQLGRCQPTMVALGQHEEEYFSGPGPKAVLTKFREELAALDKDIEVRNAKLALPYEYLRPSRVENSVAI
Source text: as §1

[4] = substrate: CCCCC/C=C\C/C=C\C/C=C\C/C=C\CCCC(=O)O; test: Kinetics of oxygenation of arachidonic acid or arachidonoyl-lysophospholipids by leukocyte LOX; type: biochemical, porcine; conditions: other: leukocyte LOX 1 unit/ml, 100 mM phosphate buffer pH 7.5, 5 mM EDTA, 0.03% Tween 20, 25° C.
Protocol: as §2, §3

[5] = substrate: CC/C=C\C/C=C\C/C=C\C/C=C\C/C=C\C/C=C\CCC(=O)O; test: Kinetics of oxygenation of docosahexaenoyl-lysoPC or docosahexaenoic acid by leukocyte LOX; type: biochemical; conditions: other: porcine leukocyte LOX 2 units/ml, 100 mM phosphate buffer pH 7.4, 5 mM EDTA, 0.03% Tween 20, 25° C.
Protocol: Porcine leukocyte LOX (2 units/ml) was incubated with each substrate docosahexaenoyl-lysoPC or docosahexaenoic acid of various concentrations in 500 μl of 100 mM phosphate buffer (pH 7.4) containing 5 mM EDTA and 0.03% Tween 20 at 25° C.

Vm (Reticulocyte LOX): 1029 ± 22 units/mg
Km (Reticulocyte LOX): 90 ± 7.3 µM
Molecule: CCCCC/C=C\C/C=C\CCCCCCCC(=O)OC[C@H](COP(=O)(O)O)OC(=O)CCCCCCC/C=C\C/C=C\CCCCC [Dilinoleoyl-PA]

Molecule: didocosahexaenenoyl phosphatidylcholine [Didocosahexaenoyl-PC]
Km (soybean LOX-1 [1]): 1.07 ± 0.184 mM
Vm (soybean LOX-1 [1]): 7.8 ± 0.3 units/μg

Vm (soybean LOX-1 [2]): 92.2 units/μg
Vm [3]: 63.2 units/mg
Molecule: CCCCC/C=C\C/C=C\C/C=C\C/C=C\CCCC(=O)O [Arachidonic acid, arachidonic acid]

Vm (Reticulocyte LOX): 443 ± 9 units/mg
Km (Reticulocyte LOX): 8.3 ± 0.6 µM
Vm (Porcine leukocyte LOX; 0.03% Tween 20): 30.7 ± 0.78 units/mg
Km (Porcine leukocyte LOX; substrate 3-100 μM, 0.03% Tween 20, 25° C.): 35.5 ± 3.77 µM
Molecule: CCCCC/C=C\C/C=C\CCCCCCCC(=O)OCC(O)COP(=O)(O)O (stereo not shown) [Linoleoyl-lysoPA]

B1: Leukocyte 12-lipoxygenase (leukocyte LOX) (Sus scrofa) (protein)
chain: MGLYRVRVSTGSSFYAGSQNQVQLWLVGQHGEAALGWCLRPARGKETEFSVDVSEYLGPLLFVKLRKRHLLQDDAWFCNWISVQGPGANGDEFRFPCYRWVEGDRILSLPEGTARTVVDDPQGLFKKHREEELAERRKLYRWGNWKDGLILNIASTGIHDLPVDERFLEDKRIDFEASLAKGLADLAVKDSLNVLMSWNSLDSFNRIFWCGQSKLAERVRDSWKEDALFGYQFLNGTNPMLLRHSVELPARLKFPPGMEELQAQLEKELQGGTLFEADFSLLDGIKANVILCSQQYLAVPLVMLKLQPDGKLLPMVIQLQLPHEGSPLPPLFLPTDPPMVWLLAKCWVRSSDFQLHELHSHLLRGHLMAEVIAVATMRCLPSIHPIFKLLIPHFRYTMEINVRARNGLVSDLGIFDQVVSTGGGGHVELLRRAAALLTYSSFCPPDDLADRGLLGVESSFYAQDALRLWEVISRYVEGIVSLHYKTDESVKEDLELQAWCREFTEIGLLGAQDRGFPVSLQSKEQLCHFVTMCIFTCTGQHSSNHLGQLDWYSWVPNAPCTMRLPPPTTKDATLETVMATLPNFHQASLQMSITWQLGRCQPTMVALGQHEEEYFSGPGPKAVLTKFREELAALDKDIEVRNAKLALPYEYLRPSRVENSVAI
notes: purchased Cayman Chemical Co. (Ann Arbor, Mich., USA)
Km [4]: 7.7 µM
Vmax [4]: 63.2 ± 11.9 units/mg
Vmax/Km [4]: 8.2 ± 1.5 units/mg/μM

B2: Porcine leukocyte LOX (Sus scrofa) (protein)
chain: MGLYRVRVSTGSSFYAGSQNQVQLWLVGQHGEAALGWCLRPARGKETEFSVDVSEYLGPLLFVKLRKRHLLQDDAWFCNWISVQGPGANGDEFRFPCYRWVEGDRILSLPEGTARTVVDDPQGLFKKHREEELAERRKLYRWGNWKDGLILNIASTGIHDLPVDERFLEDKRIDFEASLAKGLADLAVKDSLNVLMSWNSLDSFNRIFWCGQSKLAERVRDSWKEDALFGYQFLNGTNPMLLRHSVELPARLKFPPGMEELQAQLEKELQGGTLFEADFSLLDGIKANVILCSQQYLAVPLVMLKLQPDGKLLPMVIQLQLPHEGSPLPPLFLPTDPPMVWLLAKCWVRSSDFQLHELHSHLLRGHLMAEVIAVATMRCLPSIHPIFKLLIPHFRYTMEINVRARNGLVSDLGIFDQVVSTGGGGHVELLRRAAALLTYSSFCPPDDLADRGLLGVESSFYAQDALRLWEVISRYVEGIVSLHYKTDESVKEDLELQAWCREFTEIGLLGAQDRGFPVSLQSKEQLCHFVTMCIFTCTGQHSSNHLGQLDWYSWVPNAPCTMRLPPPTTKDATLETVMATLPNFHQASLQMSITWQLGRCQPTMVALGQHEEEYFSGPGPKAVLTKFREELAALDKDIEVRNAKLALPYEYLRPSRVENSVAI
notes: as for B1
Km [5]: 17.6 ± 1.7 µM
Vmax [5]: 35.9 µmol/min/mg
Vmax/Km [5]: 2.1e+06 µL/min/mg
